Legend:
ABCG2 (A549/K1.5 cells) [1] = molecular target: T1, ABCG2 (A549/K1.5 cells) (Homo sapiens, UniProt Q9UNQ0); test: Fluorescence microscopy of nuclear accumulation of IAs in A549/K1.5 cells; format: cell-based; settings: 10 μM IA, 1 hr, presence or absence of 5 μM FTC
T1 construct: Drug resistant A549/K1.5 cells with ABCG2 overexpression were maintained under a continuous drug selection with 1.5 μM C-1305; endogenous in cells; host or cells: A549/K1.5 (C-1305-selected subline of human non-small cell lung cancer A549)
T1 sequence (Q9UNQ0 1-655): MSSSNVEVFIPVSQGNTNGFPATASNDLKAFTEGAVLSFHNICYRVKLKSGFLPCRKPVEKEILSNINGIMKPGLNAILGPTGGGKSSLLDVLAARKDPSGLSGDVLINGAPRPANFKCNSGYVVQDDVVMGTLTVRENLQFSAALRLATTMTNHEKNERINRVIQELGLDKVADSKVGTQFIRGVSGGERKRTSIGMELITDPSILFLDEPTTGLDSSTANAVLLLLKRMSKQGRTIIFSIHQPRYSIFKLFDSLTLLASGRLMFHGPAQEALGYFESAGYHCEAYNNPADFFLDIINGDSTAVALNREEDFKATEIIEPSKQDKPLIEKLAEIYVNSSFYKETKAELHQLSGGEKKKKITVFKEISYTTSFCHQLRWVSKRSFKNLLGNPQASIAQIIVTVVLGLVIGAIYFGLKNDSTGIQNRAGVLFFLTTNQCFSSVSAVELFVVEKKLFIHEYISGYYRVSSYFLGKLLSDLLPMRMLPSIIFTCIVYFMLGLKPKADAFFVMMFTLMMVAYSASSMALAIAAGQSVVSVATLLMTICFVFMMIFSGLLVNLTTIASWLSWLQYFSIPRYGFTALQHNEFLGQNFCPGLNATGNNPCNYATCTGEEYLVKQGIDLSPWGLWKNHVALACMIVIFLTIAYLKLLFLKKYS
Protocol: In immunofluorescence microscopy of plasma membrane targeting of ABCG2 and nuclear accumulation of IAs, cells (1×10^4/well) were seeded in 24-well plates (1 ml medium/well) and incubated for 2 days, following which some wells were supplemented with 10 μM IA-containing medium±5 μM FTC and incubated for 1 h at 37° C. Cells were then washed twice with ice-cold PBS containing 0.1% BSA and blocked for 10 min at 4° C. with PBS containing 5% BSA. Cells were then washed once with ice-cold PBS containing 0.1% BSA and incubated for 30 min at 4° C. with a Phycoerythrin-conjugated, affinity-purified 5D3 mouse anti-human ABCG2 monoclonal antibody (1:100; eBioscience). Unspecific fluorescence was determined using cells that were incubated only with a secondary Phycoerythrin (PE)-conjugated goat anti-mouse IgG (1:200; Jackson Immunoresearch Labs, West Grove, Pa.). Cells were then washed twice and subjected to fluorescence microscopy using a DMIRE2 fluorescence microscope equipped with a DC300FX camera (Leica Microsystems, Wetzlar, Germany).
In order to exclude the possibility that differential subcellular accumulation of IA derivatives is the basis of the observed difference in cytotoxicity and cellular fluorescence, A549/K1.5 cells were incubated with 10 μM of selected IA derivatives from both group A and B in the presence or absence of FTC and subjected to fluorescence microscopy.

A549/K1.5 cells = test: MTT cytotoxicity assay, ABCG2-overexpressing A549/K1.5 cells; format: cell-based, Human; settings: for IC50: ABCG2-overexpressing A549/K1.5 cells, 96 hours exposure, MTT; for RF (resistance fold): IC50 of A549/K1.5 cells divided by IC50 of parental A549 cells
Protocol: (§1) Tissue culture: Human non-small cell lung cancer A549 cells and T-cell leukemia CCRF-CEM cells were grown under monolayer conditions or up to a maximal density of 10^6 cells/ml (for CCRF-CEM cells) in RPMI-1640 medium (GIBCO) supplemented with 10% fetal calf serum, 2 mM glutamine, 100 μg/ml penicillin and 100 μg/ml streptomycin (Biological Industries, Beth-Haemek, Israel) in a humid atmosphere of 5% CO2. Drug resistant A549/K1.5 cells with ABCG2 overexpression were maintained under a continuous drug selection with 1.5 μM C-1305. Bram, E. E., et al., (2007) Biochem Pharmacol 74(1), 41-53.
(§2) Cytotoxicity and growth inhibition assays: The cytotoxic activity of the various IA antitumor agents was determined using the MTT assay. Poindessous, V., et al., (2003) Clin Cancer Res 9(7), 2817-2825.
(§3) Exponentially growing cells were seeded at 5×10^3 cells/well in 24-well plates (2 ml medium/well). Following an overnight incubation, cells were exposed to different drug concentrations for 96 hours. Cellular viability was determined by adding the tetrazolium salt MTT for 4 h at 37° C., followed by solubilization of the intracellular precipitated formazan in 1 ml DMSO and absorbance was determined by a microplate reader (ASYS Hitech GmbH, Austria). Drug concentrations required to inhibit cell growth by 50% (IC50) compared with untreated controls were determined from the curves of survival versus drug concentrations using the SlideWrite software (Advanced Graphics Software, Inc., Encinitas, Calif.). Resistance folds (RF) were calculated by dividing the IC50 value of the resistant cells by that of the parental cell line. Values presented are means of at least three independent experiments, each performed in duplicates.
Quantitative evaluation of ABCG2 interaction with various IA derivatives: The extent of ABCG2-mediated resistance was expressed using the Resistance Fold (RF) parameter representing the ratio between the IC50 values of the resistant cells and parental cells. Likewise, ABCG2-dependent differential accumulation of IAs in ABCG2-overexpressing A549/K1.5 cells was compared using the ratio of IA accumulation in the presence or absence of the potent ABCG2 inhibitor FTC. This was termed the FTC-dependent Accumulation Fold (AF) and was determined for each IA at a constant IA concentration of 10 μM.

A549 cells = test: MTT cytotoxicity assay, parental A549 cells; format: cell-based, Human; settings: 96 hours exposure, mean of at least three experiments
Protocol: as §1, §2, §3

ABCG2 (A549/K1.5 cells) [2] = molecular target: T1, ABCG2 (A549/K1.5 cells); test: Flow cytometric IA accumulation in A549/K1.5 cells with or without fumitremorgin C; format: cell-based
Protocol: In this assay, one ml aliquots of A549/K1.5 or CCRF-CEM cell suspensions (1×10^6 cells/ml) in growth medium containing 20 mM Hepes at pH 7.3 were distributed into 1.5 ml polypropylene Eppendorf test tubes. […] Rabindran, S. […] Alternatively, in time-course experiments, IA derivatives at a constant concentration of 10 μM were added to a CCRF-CEM cell suspension incubated at 37° C., and 1 ml aliquots were removed at variable time points up to 1 hour. Following incubation, test tubes were transferred to ice and centrifuged at 4° C. Cells were then washed twice and re-suspended in ice-cold PBS containing 1% fetal calf serum and kept in the dark at 4° C. until analysis. […] Quantitative evaluation of ABCG2 interaction with various IA derivatives: The extent of ABCG2-mediated resistance was expressed using the Resistance Fold (RF) parameter representing the ratio between the IC50 values of the resistant cells and parental cells.

[3] = test system: untransfected HEK293 cells; test: Flow cytometric accumulation in untransfected HEK293 cells; format: cell-based, Human; settings: 1 μM IA, ±5 μM FTC
Protocol: For cytotoxicity and accumulation experiments, cells were grown in drug-free medium for at least one week prior to the experiments. Human embryonic kidney cells (HEK293) and their stable transfectants overexpressing the R482, G482 and T482 ABCG2 were grown in the above RPMI-1640 medium supplemented with 2 mg/ml G-418. Bram, E. E., et al., (2006) Cancer Chemother Pharmacol 58(6), 826-834.
IA derivative and tetramethylrosamine (TMR) accumulation in parental HEK293 and their HEK293/ABCG2 R/G/T482 transfectants were carried out as described herein with the a slight amendment of using a single IA concentration of 1 μM ±FTC (5 μM) for the selected as well as 0.1 μM for TMR accumulation. Robey, R. W., et al., (2003) Br J Cancer 89(10), 1971-1978. Cellular fluorescence was determined using a FACSCalibur (BD Bioscience, San Jose, Calif. USA) flow cytometer. FL1-H excitation of IAs was at 488 nm and emission was collected at 525 nm, whereas FL2-H excitation of TMR was at […] and emission was collected at 574 nm. Flow cytometric results are presented as means±SD of 3 independent experiments.
Bram, E. E., et al., (2006) Cancer Chemother Pharmacol 58(6), 826-834.

| Structure (SMILES) | nuclear accumulation (fluorescence microscopy) (ABCG2 (A549/K1.5 cells) [1]) | IC50 (A549/K1.5 cells) [µM] | RF (resistance fold) (A549/K1.5 cells) | hypersensitivity of A549/K1.5 cells (A549/K1.5 cells; versus parental A549 cells) [fold] | IC50 (A549 cells) [µM] | resistance of A549/K1.5 cells (in words) (A549/K1.5 cells; versus parental A549 cells) | ABCG2-mediated extrusion / interaction with ABCG2 (in words) (ABCG2 (A549/K1.5 cells) [2]) | efflux (in words) [3] | resistance of A549/K1.5 cells (A549/K1.5 cells; versus parental A549 cells) [fold] |
| --- | --- | --- | --- | --- | --- | --- | --- | --- | --- |
| CN(C)CCCCCNc1ccc2ncn3c4ccccc4c(=O)c1c23.Cl [C-1266] | comparable and significant nuclear accumulation regardless of ABCG2 inhibition by FTC | 0.56 ± 0.002 | 0.20 | 5.0 | 2.81 ± 0.27 |  |  |  |  |
| CN(C)CCNc1ccc2ncn3c4ccc(O)cc4c(=O)c1c23.Cl [C-1584] |  | 0.25 ± 0.01 | 19.20 |  | 0.01 ± 0.002 | prominent resistance |  |  |  |
| CCN(CC)CCCNc1ccc2ncn3c4ccc(O)cc4c(=O)c1c23.Cl [C-1335] |  | 1 ± 0.25 | 11.10 |  | 0.09 ± 0.004 | prominent resistance |  |  |  |
| CCN(CC)CCCNc1ccc2nc(C)n3c4ccc(OC)cc4c(=O)c1c23.Cl [C-1379] |  | 0.68 ± 0.06 | 0.63 |  | 1.07 ± 0.03 |  |  |  |  |
| Cc1nc2ccc(NCCN(C)C)c3c(=O)c4ccccc4n1c23.Cl [C-1213] |  | 18.3 ± 2.4 | 1.49 |  | 12.3 ± 2.5 |  |  |  |  |
| CCN(CC)CCNc1ccc2ncn3c4c(O)cccc4c(=O)c1c23.Cl [C-1633] |  | 9.83 ± 1.44 | 4.35 |  | 2.26 ± 0.33 | prominent resistance |  |  |  |
| CCN(CC)CCCCCCCCCNc1ccc2ncn3c4ccc(O)cc4c(=O)c1c23.Cl [C-2018] |  | 2.13 ± 0.62 | 1.38 |  | 1.54 ± 0.31 |  | failed to display any significant interaction with ABCG2 |  |  |
| CCN(CC)CCNc1ccc2ncn3c4ccc(C)cc4c(=O)c1c23.Cl [C-1554] |  | 3.07 ± 0.8 | 1.51 |  | 2.02 ± 0.33 |  |  |  |  |
| CCN(CC)CCNc1ccc2ncn3c4ccc(C(C)(C)C)cc4c(=O)c1c23.Cl [C-1558] |  | 2.51 ± 0.17 | 1.70 |  | 1.48 ± 0.25 |  |  |  |  |
| COc1ccc2c(c1)c(=O)c1c(NCCCN(C)C)ccc3nc(C)n2c31.Cl [C-1375] |  | 1.25 ± 0.11 | 0.96 |  | 1.3 ± 0.06 |  |  |  |  |
| CN(C)CCCNc1ccc2ncn3c4ccccc4c(=O)c1c23.Cl [C-1212] |  | 1.93 ± 0.84 | 1.02 |  | 1.89 ± 0.42 |  |  |  |  |
| CN(C)CCNc1ccc2ncn3c4ccccc4c(=O)c1c23.Cl [C-1176] |  | 1.21 ± 0.65 | 0.51 |  | 2.35 ± 0.75 |  |  |  |  |
| CN(C)CCCCCNc1ccc2ncn3c4ccc(O)cc4c(=O)c1c23.Cl [C-1492] |  | 17.2 ± 1.95 | 10.10 |  | 1.69 ± 0.12 | prominent resistance |  |  |  |
| CCN(CC)CCNc1ccc2ncn3c4ccccc4c(=O)c1c23.Cl [C-1415] |  | 2.38 ± 0.12 | 0.88 |  | 2.7 ± 0.21 |  |  |  |  |
| CCN(CC)CCNc1ccc2ncn3c4cc(O)ccc4c(=O)c1c23.Cl [C-1419] |  | 31.3 ± 2.55 | 10.70 |  | 2.92 ± 0.42 | prominent resistance |  |  |  |
| Cc1nc2ccc(NCCN(C)C)c3c(=O)c4cc(O)ccc4n1c23.Cl [C-1309] |  | 3.22 ± 0.18 | 60.80 |  | 0.05 ± 0.007 | prominent resistance |  | not from untransfected HEK293 cells | 61 |
| CN(C)CCCNc1ccc2ncn3c4ccc(O)cc4c(=O)c1c23.Cl [C-1371] |  | 0.7 ± 0.03 | 17.90 |  | 0.04 ± 0.006 | prominent resistance |  |  |  |
| CCN(CC)CCNc1ccc2ncn3c4ccc(OC)cc4c(=O)c1c23.Cl [C-1330] |  | 0.97 ± 0.08 | 0.45 | 2.2 | 2.16 ± 0.27 |  |  |  |  |
| CCCCN(CCCC)CCNc1ccc2nc(C)n3c4ccc(O)cc4c(=O)c1c23.Cl [C-1315] |  | 3.46 ± 0.16 | 2.05 |  | 1.69 ± 0.26 |  | failed to display any significant interaction with ABCG2 |  |  |
| CCN(CC)CCNc1ccc2ncn3c4c(OC)ccc(OC)c4c(=O)c1c23.Cl [C-1503] |  | 3.09 ± 0.74 | 0.88 |  | 3.5 ± 0.64 |  |  |  |  |

— US8470844B2, “Imidazoacridinone derivative compounds and methods for their use” (Technion Research & Development Foundation Limited, priority 2008, dated 2013)
